The source of these data is patent publication US20170368034A1, “THIOTRIAZOLE COMPOUND AND ITS USE IN PARASITIC PROTOZOAL INFECTIONS” (GlaxoSmithKline Intellectual Property Development Limited, priority 2014, published 2017).

For series [1] the following is noted: p698 and Table 2 p699; cited from earlier work.
Series [2] deals with P. falciparum infected erythrocytes. The series is described as follows: P. falciparum growth inhibition assay ([3H]hypoxanthine incorporation). The note with it: Plasmodium falciparum, Erythrocyte, 0.5% parasitemia (ring stage), 2% hematocrit, 48 h total incubation, read-out: PflC50. The series is classed as cell-based. How it is done: P. falciparum Growth Inhibition Assay. The sensitivity of P. falciparum infected erythrocytes to the compound is determined in triplicate using the [^3H]hypoxanthine incorporation method with an inoculum of 0.5% parasitemia (ring stage) and 2% hematocrit. The parasites were grown in RPMI 1640, 25 mM HEPES and supplemented with […]. Plates are incubated at 37° C., 5% CO2, 5% O2, 90% N2. After 24 h of incubation, [3H]hypoxanthine is added and plates are incubated for another 24 h. After that period, plates are harvested on a glass fiber filter using a TOMTEC Cell harvester 96. Filters are dried and melt on scintillator sheets and the bound radioactivity is quantified by use of a Wallac Microbeta Trilux (Model 1450 LS-Perkin Elmer). IC50s are determined using Grafit 5 program (Grafit program; Erithacus Software, Horley, Surrey, United Kingdom).

Series [3] deals with P. falciparum. The series is described as follows: P. falciparum in vivo efficacy assay (P. falciparum mouse model). Also noted: species or system Plasmodium falciparum. The note with it: for AUCED90: area under the concentration-time curve at ED90, P. falciparum mouse model; for ED90: dose that eradicates 90 per cent of parasitemia, NOD-scid IL2R_null mice engrafted with human erythrocytes. How it is done:
P. Falciparum In Vivo Efficacy Assay.
Antimalarial in vivo efficacy was determined using the P. falciparum mouse model following the procedure described in: Jimenez-Diaz, M. B., Mulet, T., Viera, S., Gómez, V., Garuti, H., Ibañez, J., Alvarez-Doval, A., Shlutz, D. L., Martinez, A., Improved Murine Model Of Malaria Using Plasmodium falciparum (Competent Strains and Non-Myelodepleted NOD-scid IL2R_null
Mice Engrafted with Human Erythrocytes) Antimicrob. Agents Chemother 2009, 53 (10), 4533-4536

Series [4] is described as follows: Equilibrium solubility assessment in biorelevant media. The series is classed as physicochemical. The note with it: thermodynamic from solid, room temperature. The method, then: Compound's equilibrium solubility was measured at 4 h room temperature in four biologically relevant fluids: Fasted State-(Simulated Intestinal Fluid (FaSSIF), Fed State Simulated IntestinalFluid (FeSSIF), Simulated Gastric Fluid (SGF) and Phosphate Buffered Saline (PBS).
Organic solvents of HPLC grade were used. Ultra pure water (Milli-Q grade) was used. Buffers were prepared with ultra pure water and filtered using 0.45 μ nylon filters.
Determination of equilibrium solubility (assuming chemical stability in the desired solvent is not a problem).
a) 1 mg of solid compound was weighted in one 4 mL glass vial and 1 mL of the corresponding medium freshly prepared (SGF, FaSSIF, FeSSIF or PBS) was added. All these samples were prepared by duplicate.
b) The samples were stirred (roller mixer) for 4 hr at room temperature. If required, additional solid compound (0.1 mg) was added to maintain excess of it (saturated solutions).
c) After 4 hours, the samples were centrifuged (10000 rpm, 10 min.) and the supernatants were transfer to an HPLC vial and analysed by LC-MS (previous dilution with mobile phase when needed).
d) The pH of the final solution in each sample was measured with a pH-meter (WTW pH330i and a pH-electrode Sentix 41).
All supernatants were analysed by LC-MS. Quantification of those samples was carried out against calibration curves obtained from 1 mg/mL DMSO (Aldrich cat. ref.: 27685-5) stock solutions, by dilution with the mobile phase used in the chromatography. Depending on the solubility range, U.V. (1 μg/mL to 100 μg/mL) or MS (1 μg/mL to 1 ng/mL) detector were used in the quantification.
The analysis of all LC-MS data was performed with MassLynx 3.4 software and Analyst 1.4.2. Statistical and graphic analysis of data was performed using Microsoft Excel. The concentration (μM) and solubility (μg/ml) for each compound was calculated using the peak areas from the sample and those from the calibration curve.

Where [5] appears, read: FaSSIF (fasted state simulated intestinal fluid), fassif, Fasted state simulated intestinal fluid, read-out: FaSSIF solubility.
The mark [6] stands for this setting: FeSSIF (fed state simulated intestinal fluid), fessif, Fed state simulated intestinal fluid, read-out: FeSSIF solubility.
Where [7] appears, read: PBS (phosphate buffered saline), aqueous buffer, Phosphate buffered saline, read-out: PBS solubility.
[8] abbreviates: SGF (simulated gastric fluid), Simulated gastric fluid, read-out: SGF solubility.

The term solubility denotes the concentration that dissolves in the medium under given conditions.

In brackets after ≈: the same amount, converted by molar mass. Read-outs that look alike come from different tables or passages of the source. Bounds are passed on as bounds.

Regarding `O=C(CSc1nc(-c2ccncc2)n[nH]1)c1c[nH]c2ccccc12` [Compound 32], the “activity in the assays of Shah et al.” value in series [1] is “inactive”.

With `O=C(CSc1nc(-c2ccncc2)n[nH]1)c1c[nH]c2ccccc12` [drawing 18], the IC50 in series [2] is more than 5000 nM.

As for `Cc1[nH]c2ccccc2c1C(=O)C(C)Sc1nnc(-c2ccccc2Br)[nH]1` (stereo not drawn) [drawing 19], the IC50 in series [2] lay in the range of 44 to 60 nM.

`CC(Sc1nc(-c2c(Cl)cncc2Cl)n[nH]1)C(=O)c1c[nH]c2ccccc12` (stereo not drawn) [drawing 20]: the IC50 in series [2] was 52 nM.

As for `C[C@@H](Sc1nc(-c2c(Cl)cncc2Cl)n[nH]1)C(=O)c1c[nH]c2ccccc12` [drawing 21], the IC50 in series [2] is 19 to 53 nM.

For `Cc1[nH]c2ccccc2c1C(=O)C(C)Sc1nnc(-c2ccccc2Br)[nH]1` (stereo not drawn) [drawing 22], in series [3], the AUCED90 is reported as less than 0.05 μg.h.ml-1day-1 and the ED90 was 7.31 mg/kg.

In series [3], `C[C@@H](Sc1nc(-c2c(Cl)cncc2Cl)n[nH]1)C(=O)c1c[nH]c2ccccc12` [drawing 24] displayed an AUCED90 of 0.17 μg.h.ml-1day-1 and an ED90 of 2.2 mg/kg.

For `Cc1[nH]c2ccccc2c1C(=O)C(C)Sc1nnc(-c2ccccc2Br)[nH]1` (stereo not drawn) [drawing 25], the solubility at 4 h in series [4] (setting [5]) was 37 µg/mL (≈ 83.8 µM); in series [4] (setting [6]), 181 µg/mL (≈ 410 µM); in series [4] (setting [7]), less than 0.1 µg/mL; in series [4] (setting [8]), less than 0.1 µg/mL.

On to `CC(Sc1nc(-c2c(Cl)cncc2Cl)n[nH]1)C(=O)c1c[nH]c2ccccc12` (stereo not drawn) [drawing 26], for which the solubility at 4 h in series [4] (setting [5]) is 168 µg/mL (≈ 402 µM).

Consider `C[C@@H](Sc1nc(-c2c(Cl)cncc2Cl)n[nH]1)C(=O)c1c[nH]c2ccccc12` [drawing 27], for which the solubility at 4 h is 216 µg/mL (≈ 516 µM) in series [4] (setting [5]), 578 to 675 µg/mL (≈ 1380 to 1610 µM) in series [4] (setting [6]), 169 to 289 µg/mL (≈ 404 to 691 µM) in series [4] (setting [7]) and 15 to 76 µg/mL (≈ 35.9 to 182 µM) in series [4] (setting [8]).
